Earlier results on one molecule are cited in US20250064731A1, “A LIQUID PHARMACEUTICAL FORMULATION OF CLONIDINE HYDROCHLORIDE” (NOVUMGEN LIMITED, priority 2022, published 2025).

The conditions of this data set: after oral administration.

Consider `Clc1cccc(Cl)c1N=C1NCCN1` [clonidine, N-(2,6-dichlorophenyl)-4,5-dihydro-1H-imidazol-2-amine], for which the “absorption from the gastrointestinal tract” value was “almost completely absorbed” and the liver metabolism entry is “rapid liver metabolism”.
